Seven molecules from patent publication US20110171279A1, “POLYETHYLENIMINE BIOCIDES” (NDSU RESEARCH FOUNDATION, priority 2009, published 2011) can be followed below.

SMILES strings stand for the structures. Read-outs that look alike come from different tables or passages of the source.

Format in all cases: cell-based
One experiment deals with Candida albicans. The experiment can be described thus: Antifungal activity, percent reduction in fungal growth of Candida albicans. The following applies: Table 11. How it is done: Additionally, the antifungal activity of Formulations 69-77 and Reference 1 toward Candida albicans was measured by determining the percent reduction in fungal growth as a function of concentration.

The next experiment deals with Escherichia coli. The experiment can be described thus: Growth reduction / MIC test against Escherichia coli in Luria-Bertani broth, absorbance 600 nm. The following applies: for Percent reduction in growth of Escherichia coli: Table 10; for MIC: Escherichia coli, read-out: E. Coli MIC. How it is done:
(§1) The antimicrobial properties of the Formulations were determined by measuring the minimum inhibitory concentration (MIC) or by using an adaptation of the MIC test. […] Additional details of the MIC method can be found at Andrews, J. M., Journal of Antimicrobial Chemotherapy (2001) 48, 5-16, incorporated herein by reference in its entirety.
In accordance with the MIC test, working solutions for each Formulation were prepared by dissolving 100 mg of each Formulation in 10 mL of methanol (Sigma-Aldrich) to generate a 10 mg/mL solution. Next, 10 ml of Luria-Bertani broth was spiked with 200 μL of the mg/mL Formulation solution to achieve a final concentration of 0.2 mg/mL.
(§2) 0.2 mL of each concentration of each Formulation (spiked with E. coli) was added in triplicate to a 96-well plate. Additionally, 0.2 mL of Luria-Bertani broth without any E. coli or Formulation and 0.2 mL of Luria-Bertani broth with E. coli, but no Formulations, served as negative and positive growth controls, respectively. Plates were then placed in an incubator, at 37° C. for 24 hrs (with shaking), and then measured for growth by taking absorbance measurements at 600 nm with a multi-well plate spectrophotometer (Synergy HT). The efficacy of each Formulation was measured by determining the percent reduction in bacterial growth as a function of Formulation concentration.
Next, the antimicrobial activity of Formulations 69-77 and Reference 1 toward E. coli was measured by determining the percent reduction in bacterial growth as a function of concentration. The results for the examples were compared to various PEIs used to produce the examples.

Experiment [1] has as its system Staphylococcus epidermidis. The experiment can be described thus: Growth reduction / MIC test against Staphylococcus epidermidis in tryptic soy broth, absorbance 600 nm. The following applies: for Percent reduction in growth of Staphylococcus epidermidis: Table 9; for MIC: Staphylococcus epidermidis, read-out: S. epidermidis MIC. The procedure:
as §1
In accordance with the MIC test, working solutions for each Formulation were prepared by dissolving 100 mg of each Formulation in 10 mL of methanol (Sigma-Aldrich) to generate a 10 mg/mL solution. Next, 10 ml of tryptic soy broth was spiked with 200 μL of the mg/mL Formulation solution to achieve a final concentration of 0.2 mg/mL.
as §2, with “S. epidermidis)” for “E. coli)”, “tryptic soy” for “Luria-Bertani”, “S. epidermidis” for “E. coli”, “S. epidermidis,” for “E. coli,”, “HT microplate reader, BioTek Instruments, Winooski, Vt.).” for “HT).”
For comparison purposes a benzylpiperidino biocide (“Reference 1”) was prepared using ETCS and synthetic methods similar to those described in U.S. Pat. No. 5,036,077, issued Jul. 30, 1991, and incorporated by reference in its entirety. To make Reference 1, 3.9 g of ETCS and 2 g of 4-benzylpiperidine were reacted in 30 mL of methanol. The mixture was heated at 65° C. for 48 hours. Reaction completion was confirmed by ^1H NMR, ^13C NMR, HMQC (2D) NMR and elemental analysis. The antimicrobial activity of Formulations 69-77 and Reference 1 toward S. epidermidis was measured by determining the percent reduction in bacterial growth as a function of concentration, as was done above in EXAMPLE 3.

The next experiment relates to Halomonas pacifica. Nature of the experiment: Growth reduction / MIC test against Halomonas pacifica. Conditions: for MIC: Bisbaumannia pacifica. The procedure:
as §1
(§3) In accordance with the MIC test, working solutions for each Formulation were prepared by dissolving 100 mg of each Formulation in 10 mL of methanol (Sigma-Aldrich) to generate a 10 mg/mL solution. Next, 10 ml of Guillard's F/2 medium was spiked with 200 μL of the 10 mg/mL Formulation solution to achieve a final concentration of 0.2 mg/mL.
0.2 mL of each H. pacifica concentration was added in triplicate to a 96-well plate. Additionally, 0.2 mL of Guillard's F/2 medium without any H. pacifica or Formulation and 0.2 mL of Guillard's F/2 medium with H. pacifica, but no Formulations, served as negative and positive growth controls, respectively. The 96-well plates were placed in an illuminated growth cabinet with a 16:8 light:dark cycle (photon flux density 33 μmol m^−2 s^−1) for 48 hrs at 18° C. and measured for chlorophyll fluorescence using a multi-well plate spectrophotometer (excitation: 360 nm; emission: 670 nm). The efficacy of each Formulation was measured by determining the percent reduction in diatom growth as a function of Formulation concentration.
(§4) The antimicrobial activity of Formulations 10-12, also derived from ETCS and PEI, was determined toward a suite of marine microorganisms, namely, Pseudoalteromonas atlantica, Cellulophaga lytica, Cobetia marina, and Halomonas pacifica. The antimicrobial activity of Formulations 10-12 was determined toward these marine microorganisms according to the methods of EXAMPLES 5-7. The MIC for each Formulation against each strain is compared to that of the PEI, ETCS, and TCS (alone) in Table 7.

Experiment [2] concerns Navicula incerta. The experiment can be described thus: Growth reduction / MIC test against Navicula incerta in Guillard's F/2 medium, chlorophyll fluorescence. The procedure:
as §1, §3
(§5) 0.2 mL of each concentration of each Formulation (spiked with N. incerta) was added in triplicate to a 96-well plate. Additionally, 0.2 mL of Guillard's F/2 medium without any N. incerta or Formulation and 0.2 mL of Guillard's F/2 medium with N. incerta, but no Formulations, served as negative and positive growth controls, respectively. The 96-well plates were placed in an illuminated growth cabinet with a 16:8 light:dark cycle (photon flux density 33 μmol m^−2 s^−1) for 48 hrs at 18° C. and measured for chlorophyll fluorescence using a multi-well plate spectrophotometer (excitation: 360 nm; emission: 670 nm). The efficacy of each Formulation was measured by determining the percent reduction in diatom growth as a function of Formulation concentration.

Another experiment concerns Cellulophaga lytica. The experiment can be described thus: Growth reduction / MIC test against Cellulophaga lytica. Conditions: for MIC: Cellulophaga lytica. How it is done: as §1, §3
as §5, with “C. lytica)” for “N. incerta)”, “C. lytica” for “N. incerta”, “C. lytica,” for “N. incerta,”
as §4

In experiment [3] the test system is Navicula incerta. The experiment can be described thus: Growth reduction / MIC test against Navicula incerta in Guillard's F/2 medium, chlorophyll fluorescence. The following applies: Table 12; read-out: N. incerta MIC.
Setting [4] is: Formulation Concentration 0.78125 μg/mL.
Setting [5] is: Formulation Concentration 1.5625 μg/mL.
[6] abbreviates: Formulation Concentration 3.125 μg/mL.
The mark [7] stands for this setting: Formulation Concentration 6.25 μg/mL.
Where [8] appears, read: Formulation Concentration 12.5 μg/mL.
The mark [9] stands for this setting: Formulation Concentration 25 μg/mL.
Setting [10] is: Formulation Concentration 50 μg/mL.
Setting [11] is: Formulation Concentration 100 μg/mL.
[12] abbreviates: Table 12, read-out: H. pacifica MIC.
Setting [13] is: Table 12, read-out: C. lytica MIC.

Turning to `Clc1cc(Cl)c(OCC2CO2)c(Cl)c1` (stereo not drawn) [EDCP, 2-((2,4,6-trichlorophenoxy)methyl)oxirane], the “Percent reduction in growth of Candida albicans” value in the experiment on Candida albicans (setting [4]) worked out at 11.66%; in the experiment with Candida albicans (setting [5]), 15.25%; with Candida albicans (setting [6]), 0.00%; in the experiment with Candida albicans (setting [7]), 1.45%; in the experiment with Candida albicans (setting [8]), 0.00%; in the experiment on Candida albicans (setting [9]), 0.00%. The “Percent reduction in growth of Candida albicans” value in the experiment on Candida albicans (setting [10]) amounted to 21.55%; in the experiment with Candida albicans (setting [11]) it was 25.83%. Moreover, the “Percent reduction in growth of Escherichia coli” value in the experiment on Escherichia coli (setting [4]) came to 14.85%; with Escherichia coli (setting [5]), 1.60%; with Escherichia coli (setting [6]), 0.00%; in the experiment with Escherichia coli (setting [7]) it was 55.43%; with Escherichia coli (setting [8]), 52.95%; in the experiment with Escherichia coli (setting [9]), 61.26%. The results for the “Percent reduction in growth of Escherichia coli” value in the experiment on Escherichia coli (setting [10]) and with Escherichia coli (setting [11]) were 1.38% and 91.65%, respectively. Also, the “Percent reduction in growth of Staphylococcus epidermidis” value in experiment [1] (setting [4]) amounted to 7.58%; in experiment [1] (setting [5]), 6.34%; in experiment [1] (setting [6]), 5.04%; in experiment [1] (setting [7]) it was 8.44%; in experiment [1] (setting [8]), 6.20%; in experiment [1] (setting [9]), 8.90%. Moreover, the “Percent reduction in growth of Staphylococcus epidermidis” value in experiment [1] (setting [10]) is listed as 5.00%; in experiment [1] (setting [11]) it was 0.00%.

Regarding `CNc1ccccc1` [N-methyl aniline, N-methylaniline], the MIC was greater than 100 µg/mL in the experiment with Halomonas pacifica (read-out: H. pacifica MIC, Table 12); greater than 100 µg/mL with Navicula incerta [2] (read-out: N. incerta MIC); greater than 100 µg/mL with Escherichia coli; greater than 100 µg/mL in experiment [1]; greater than 100 µg/mL in the experiment on Cellulophaga lytica (read-out: C. lytica MIC, Table 12).

As to `C=CCN` [allyl amine], the MIC (in the experiment with Halomonas pacifica (setting [12]); in the experiment on Navicula incerta [3]; with Escherichia coli (Table 12); in experiment [1] (Table 12); with Cellulophaga lytica (setting [13])) was greater than 100 µg/mL each time.

Turning to `COCCNCCOC` [bis(methoxyethyl), bis(2-methoxyethyl)amine], the MIC (with Halomonas pacifica (setting [12]); with Navicula incerta [3]; with Escherichia coli (Table 12); in experiment [1] (Table 12); with Cellulophaga lytica (setting [13])) was greater than 100 µg/mL in each case.

As for `OCCNCCO` [diethanolamine], the minimal inhibitory concentration (MIC) (with Halomonas pacifica (setting [12]); in the experiment on Navicula incerta [3]; with Escherichia coli (Table 12); in experiment [1] (Table 12); in the experiment with Cellulophaga lytica (setting [13])) was greater than 100 µg/mL in each case.

As for `CC(O)CNCC(C)O` (stereo not drawn) [diisopropanolamine], the “H. pacifica MIC” value in the experiment on Halomonas pacifica (Table 12) was greater than 100 µg/mL. Moreover, in the experiment with Navicula incerta [2] (Table 12), the “N. incerta MIC” value was greater than 100 µg/mL. Besides, the “E. Coli MIC” value in the experiment with Escherichia coli (Table 12) is greater than 100 µg/mL. The “S. epidermidis MIC” value in experiment [1] (Table 12) is greater than 100 µg/mL. In the experiment with Cellulophaga lytica (Table 12), the “C. lytica MIC” value was greater than 100 µg/mL.

`NCCN` [ethylenediamine]: the MIC (with Halomonas pacifica (setting [12]); in the experiment on Navicula incerta [3]; in the experiment on Escherichia coli (Table 12); in experiment [1] (Table 12); with Cellulophaga lytica (setting [13])) was greater than 100 µg/mL throughout.

As usually defined, the MIC is the lowest concentration that inhibits growth of the organism.
